Molecular target: H. orenii β-glucosidase (GH1) (Halothermothrix orenii, UniProt B8CYA8)
Assay: p-nitrophenol release, absorbance […] nm
Format: biochemical
Conditions: 50 mM HEPES pH 7.4, 10 mM substrate

Sequence of H. orenii β-glucosidase (GH1) (B8CYA8 1-451): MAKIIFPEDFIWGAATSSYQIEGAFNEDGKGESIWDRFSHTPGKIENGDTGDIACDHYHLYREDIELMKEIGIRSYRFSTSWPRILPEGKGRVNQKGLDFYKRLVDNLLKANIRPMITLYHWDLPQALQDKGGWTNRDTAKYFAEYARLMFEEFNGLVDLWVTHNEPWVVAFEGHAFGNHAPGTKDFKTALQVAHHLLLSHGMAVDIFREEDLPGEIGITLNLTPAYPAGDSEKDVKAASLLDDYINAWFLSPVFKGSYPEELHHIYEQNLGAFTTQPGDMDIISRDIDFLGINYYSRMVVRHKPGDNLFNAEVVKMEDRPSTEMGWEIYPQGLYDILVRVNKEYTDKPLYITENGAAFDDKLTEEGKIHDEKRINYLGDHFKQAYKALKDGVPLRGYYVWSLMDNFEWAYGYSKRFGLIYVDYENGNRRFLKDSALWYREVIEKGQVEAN

## O=[N+]([O-])c1ccc(O[C@@H]2O[C@H](CO)[C@@H](O)[C@H](O)[C@H]2O)cc1 [p-nitrophenyl glucoside]
  p-nitrophenol release, absorbance 420 nm: monitoring the enzymatic rate of hydrolysis of p‐nitrophenyl glucoside by a UV‐Vis assay

From article PMC9310948 (Chemcatchem, 2022)
